Measured values from publication PMC4965013, “Open Source Drug Discovery with the Malaria Box Compound Collection for Neglected Diseases and Beyond” (PLoS Pathogens, 2016).
Several values for one entry are separate records, joined by “and”; a condition that tells them apart may be missing. Equal values may be shown once. Read-outs that look alike come from different tables or passages of the source.

Experiments:
[1] = system: Toxoplasma gondii TS-4; details: ref [46]; cited from earlier work
[2] = system: P. falciparum NF54 late-stage gametocytes; details: ref [61]; cited from earlier work
[3] = system: P. falciparum 3D7 trophozoites; assay: Metabolomic fingerprint profiling LC-MS; type: cell-based, Plasmodium falciparum; design: UDP-D-glucose / ADP-D-glucose: unit not given here
[4] = system: Naegleria fowleri trophozoites; assay: Naegleria fowleri CellTiter-Glo; type: cell-based; details: Naegleria fowleri
From the text: Columns CY-CZ: Kyle group (data presented first in this paper). Naegleria fowleri trophozoite growth inhibition. Methods: The CellTiter-Glo (CTG) 2.0 luminescent assay is a quantitative assay that assesses the presence of cellular ATP in lysed cells, displaying an output in Relative Light Units (RLU’s). This was previously standardised, for the growth and development of Naegleria fowleri trophozoites in-vitro to assess drug susceptibility on this parasite. […] These included two drug-like molecules MMV665807 (St. Jude’s Children’s Hospital) and MMV665979 (The Genomics Institute of the Novartis Research Foundation - GNF) and two Probe-like molecules, MMV006203 (GNF) & MMV006172 (GNF; GlaxoSmithKline - GSK). […] However, these Malaria Box compounds were all toxic to zebrafish and mammalian cells.

[5] = system: P. falciparum; assay: EC50 listed in S2 Table Metabolomics (used to set the concentration tested); type: cell-based; details: Plasmodium falciparum; EC50 used for Factor_XEC50 in metabolomics; read-out: EC50_nM
[6] = system: P. falciparum 3D7; assay: [3H]-hypoxanthine growth inhibition, modified HCO3- or O2; type: cell-based; details: for IC50: Plasmodium falciparum
[7] = molecular target: PfPMT (Plasmodium falciparum, UniProt Q8IDQ9); assay: PfPMT gene replacement yeast growth; details: 100µM
Chain of PfPMT (Q8IDQ9 whole entry): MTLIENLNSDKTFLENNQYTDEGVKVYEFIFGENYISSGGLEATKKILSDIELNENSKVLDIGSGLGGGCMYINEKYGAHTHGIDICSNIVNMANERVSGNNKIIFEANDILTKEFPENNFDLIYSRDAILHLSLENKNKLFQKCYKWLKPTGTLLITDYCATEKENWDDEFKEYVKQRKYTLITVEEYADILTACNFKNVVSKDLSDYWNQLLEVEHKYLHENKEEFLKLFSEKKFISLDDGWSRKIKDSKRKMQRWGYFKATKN

[8] = system: Neospora caninum Nc-1 tachyzoites; assay: Neospora caninum Nc-Betagal proliferation; type: cell-based
[9] = molecular target: T1, PfA-M1 (Plasmodium falciparum, UniProt O96935); assay: rPfA-M1 aminopeptidase activity (Florent); type: biochemical, P. falciparum; details: 100µM
T1 construct: encoding residues 192-1085 of native PfA-M1; hexahistidine (N); TEV cleavage site (ENLYFQS) (N); made in house; host or cells: Escherichia coli BL21 (DE3) Rosetta 2
T1 sequence (O96935 192-1085): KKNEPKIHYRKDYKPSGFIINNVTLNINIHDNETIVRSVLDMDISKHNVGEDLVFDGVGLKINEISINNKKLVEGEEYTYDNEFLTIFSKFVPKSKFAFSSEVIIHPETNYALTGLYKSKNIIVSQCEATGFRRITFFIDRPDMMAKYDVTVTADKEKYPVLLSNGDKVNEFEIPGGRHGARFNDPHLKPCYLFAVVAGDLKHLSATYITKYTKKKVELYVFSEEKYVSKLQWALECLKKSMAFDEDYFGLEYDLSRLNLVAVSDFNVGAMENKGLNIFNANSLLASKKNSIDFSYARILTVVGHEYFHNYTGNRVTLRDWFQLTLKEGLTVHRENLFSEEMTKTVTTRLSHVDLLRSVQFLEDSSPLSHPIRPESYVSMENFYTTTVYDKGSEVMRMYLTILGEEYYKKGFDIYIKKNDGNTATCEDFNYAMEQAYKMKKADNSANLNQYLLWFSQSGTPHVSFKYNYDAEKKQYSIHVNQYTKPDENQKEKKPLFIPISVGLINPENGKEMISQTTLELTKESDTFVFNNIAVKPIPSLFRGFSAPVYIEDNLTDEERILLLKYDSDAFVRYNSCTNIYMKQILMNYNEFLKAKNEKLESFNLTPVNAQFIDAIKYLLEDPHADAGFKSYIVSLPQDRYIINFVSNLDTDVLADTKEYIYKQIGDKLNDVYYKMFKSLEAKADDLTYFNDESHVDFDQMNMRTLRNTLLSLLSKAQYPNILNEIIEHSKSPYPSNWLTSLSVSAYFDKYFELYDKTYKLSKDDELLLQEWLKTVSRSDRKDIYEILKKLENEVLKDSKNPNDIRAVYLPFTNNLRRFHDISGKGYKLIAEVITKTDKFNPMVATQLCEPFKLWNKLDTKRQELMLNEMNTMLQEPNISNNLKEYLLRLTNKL

[10] = system: P. falciparum NF54Pfs16 gametocytes stage IV-V; details: ref [62]; read-out: gametocyte late stage (IV-V) luciferase EC50; cited from earlier work
[11] = system: P. falciparum NF54Pfs16 gametocytes stage I-III; details: ref [61]; read-out: gametocyte early stage (I-III) luciferase EC50; cited from earlier work
[12] = system: P. falciparum NF54 GFP-Pfs16 gametocytes stage I-III; details: ref [64]; read-out: gametocyte early stage (I-III) GFP-MTR EC50; cited from earlier work
[13] = system: P. falciparum NF54 GFP-Pfs16 gametocytes stage IV-V; details: ref [64]; read-out: gametocyte late stage (IV-V) GFP-MTR EC50; cited from earlier work
[14] = system: T. cruzi Tulahuen; details: ref [84]; read-out: Trypanosoma cruzi Tulahuen intracellular amastigotes in MRC5 cell line EC50; cited from earlier work
[15] = system: P. falciparum Dd2; assay: Malaria Sybr Green I Fluorescence assay Dd2 Horrocks; type: cell-based; details: Plasmodium falciparum, DD2, 48 h; read-out: P. falciparum Dd2 asexual blood stage EC50 Horrocks
Protocol: Column S: Horrocks group (data presented first in this paper). Asexual Dd2 inhibition of growth (IC50s): IC50 for the Dd2 clone of Plasmodium falciparum were determined using the Malaria Sybr Green I Fluorescence assay. Drug assays were initiated using a 2% trophozoite stage parasitaemia and 2% hematocrit and fluorescence measured after 48 h as fully described in Hasenkamp et al.[53]. Log dose-response curves were plotted in GraphPad Prism (v5.0). The controls for Dd2 using our 48hr Sybr Green I assay were (rounded to nearest nM): Chloroquine 209nM, Mefloquine 11nM, Quinine 246nM, Dihydroartemisinin 4nM, Artemether 10nM, Atovaquone 3nM.

[16] = system: P. falciparum NF54 gametocytes stage IV/V; assay: Gametocyte PrestoBlue resazurin assay Mancama; type: cell-based; details: reference control
[17] = system: Leishmania infantum MHOM/MA/BE/67; details: Run 1 and Run 2; ref [88]; read-out: L. infantum IC50 positive control; cited from earlier work
[18] = system: T. b. brucei Squib 427; details: Run 1 and Run 2; ref [88]; read-out: T. brucei brucei IC50 positive control; cited from earlier work
[19] = system: Trypanosoma brucei rhodesiense STIB 900; details: Run 1 and Run 2; ref [88]; read-out: T. rhodesiense IC50 positive control; cited from earlier work
[20] = metabolite level change after treatment

For `CN(C)CCNc1cc(-c2ccccc2)nc2ccccc12` [MMV006704], the “non-toxic compounds active against T. gondii” value (from here on “non-toxic compounds active”) [1] is given as “active”.

In the case of `CN1CCN(c2ccc(Nc3c4ccccc4nc4ccccc34)cc2)CC1` [MMV006172], the IC50 [2] is given as < 350 nM, the Acetyllysine ([3]; S2 Table Metabolomics, metabolite Acetyllysine) is given as 0.6429 and the N-acetyl-L-ornithine ([3]; S2 Table Metabolomics, metabolite N-acetyl-L-ornithine) is given as -0.2511. The N-carbamoyl-L-aspartate ([3]; S2 Table Metabolomics, metabolite N-carbamoyl-L-aspartate) was 0.8815, the NADPH ([3]; S2 Table Metabolomics, metabolite NADPH) was 2.534 and the dAMP ([3]; S2 Table Metabolomics, metabolite dAMP) was 1.267. The dCMP ([3]; S2 Table Metabolomics, metabolite dCMP) was -0.3053, the dTDP ([3]; S2 Table Metabolomics, metabolite dTDP) was 0.7092 and the dTMP ([3]; S2 Table Metabolomics, metabolite dTMP) was 0.8691. The dTTP ([3]; S2 Table Metabolomics, metabolite dTTP) was -0.715, the dihydroorotate ([3]; S2 Table Metabolomics, metabolite dihydroorotate) was 1.4632 and the orotate ([3]; S2 Table Metabolomics, metabolite orotate) was 0.5213. The DLH ([3]; S2 Table Metabolomics, peptide DLH) was -4.586, the DLS/SDL/SID ([3]; S2 Table Metabolomics, peptide DLS/SDL/SID) was -3.823 and the PD ([3]; S2 Table Metabolomics, peptide PD) was -0.4464. It also gave a PEE ([3]; S2 Table Metabolomics, peptide PEE) of -0.6694, a PVNF ([3]; S2 Table Metabolomics, peptide PVNF) of -3.7 and a 3-phosphoglycerate ([3]; metabolite 3-phosphoglycerate, S2 Table Metabolomics) of -0.655. The ADP-D-glucose ([3]; metabolite ADP-D-glucose, S2 Table Metabolomics) was -0.09693, the ATP ([3]; metabolite ATP, S2 Table Metabolomics) was -0.7842 and the CDP ([3]; metabolite CDP, S2 Table Metabolomics, change in metabolite level after compound treatment) was 1.006. The D-sedoheptulose-1/7-phosphate ([3]; metabolite D-sedoheptulose-1/7-phosphate, S2 Table Metabolomics, change in metabolite level after compound treatment) was 0.2573, the FAD ([3]; metabolite FAD, S2 Table Metabolomics) was 0.1782 and the GMP ([3]; metabolite GMP, S2 Table Metabolomics, change in metabolite level after compound treatment) was -0.3671. The “NAD+” value ([3]; metabolite NAD+, S2 Table Metabolomics) was 0.5266, the “NADP+” value ([3]; metabolite NADP+, S2 Table Metabolomics) was -0.7002 and the “Octoluse Bisphosphate” value ([3]; metabolite Octoluse Bisphosphate, S2 Table Metabolomics, change in metabolite level after compound treatment) was -0.1204. It also gave a Pyroglutamic acid ([3]; metabolite Pyroglutamic acid, S2 Table Metabolomics) of -0.2696, a UDP-D-glucose ([3]; metabolite UDP-D-glucose, S2 Table Metabolomics) of 0.05631 and a UDP-D-glucuronate ([3]; metabolite UDP-D-glucuronate, S2 Table Metabolomics) of -0.2935. The UDP-N-acetyl-glucosamine ([3]; metabolite UDP-N-acetyl-glucosamine, S2 Table Metabolomics) was 0.1613, the UDP ([3]; metabolite UDP, S2 Table Metabolomics, change in metabolite level after compound treatment) was 0.649 and the UMP ([3]; metabolite UMP, S2 Table Metabolomics, change in metabolite level after compound treatment) was 0.2218. For the same molecule, the UTP ([3]; metabolite UTP, S2 Table Metabolomics, change in metabolite level after compound treatment) was -0.6427, the a-ketoglutarate ([3]; metabolite a-ketoglutarate, S2 Table Metabolomics) was -0.4073 and the citrate/isocitrate ([3]; metabolite citrate/isocitrate, S2 Table Metabolomics, change in metabolite level after compound treatment) was -0.6633. The cytidine ([3]; metabolite cytidine, S2 Table Metabolomics) was 0.3233, the dATP ([3]; metabolite dATP, S2 Table Metabolomics) was -0.3558 and the dGMP/AMP ([3]; metabolite dGMP/AMP, S2 Table Metabolomics, change in metabolite level after compound treatment) was 1.003. It also gave a fumarate ([3]; metabolite fumarate, S2 Table Metabolomics, change in metabolite level after compound treatment) of 0.7684, a glucose-1/6-phosphate ([3]; metabolite glucose-1/6-phosphate, S2 Table Metabolomics, change in metabolite level after compound treatment) of 0.09231 and a glycerate ([3]; metabolite glycerate, S2 Table Metabolomics, change in metabolite level after compound treatment) of 0.7592. It also gave a guanine ([3]; metabolite guanine, S2 Table Metabolomics, change in metabolite level after compound treatment) of 0.5811, a guanosine ([3]; metabolite guanosine, S2 Table Metabolomics, change in metabolite level after compound treatment) of 0.453 and a hypoxanthine ([3]; metabolite hypoxanthine, S2 Table Metabolomics) of -0.3137. The indole ([3]; metabolite indole, S2 Table Metabolomics) was -0.03187, the inosine ([3]; metabolite inosine, S2 Table Metabolomics, change in metabolite level after compound treatment) was -0.01435 and the 2_3-Diphosphoglyceric acid [3, 20] was -0.3266. It also gave a 4-phosphopantothenate [3, 20] of 0.2237, a 6-phospho-D-gluconate [3, 20] of -0.02611 and an FMN [3, 20] of -0.396. For the same molecule, the IMP [3, 20] was 0.3236, the Pyrophosphate [3, 20] was -0.313 and the Sedoheptoluse bisphosphate [3, 20] was 0.4531. The cyclic-AMP [3, 20] was -0.3476, the glutathione disulfide [3, 20] was -0.09654 and the lactate [3, 20] was -0.002939. It also gave a myo-inositol [3, 20] of 0.6827, a nicotinate ([3]; metabolite nicotinate, S2 Table Metabolomics) of -0.01109 and an ornithine ([3]; metabolite ornithine, S2 Table Metabolomics) of 0.1416. For the same molecule, the phosphoenolpyruvate ([3]; metabolite phosphoenolpyruvate, S2 Table Metabolomics) was -0.5207, the pyruvate ([3]; metabolite pyruvate, S2 Table Metabolomics, change in metabolite level after compound treatment) was -0.2034 and the ribose-phosphate ([3]; metabolite ribose-phosphate, S2 Table Metabolomics) was -0.6476. It also gave a sarcosine/alanine ([3]; metabolite sarcosine/alanine, S2 Table Metabolomics, change in metabolite level after compound treatment) of -0.2856, a sn-glycerol-3-phosphate ([3]; metabolite sn-glycerol-3-phosphate, S2 Table Metabolomics) of -0.6027 and a succinate/methylmalonic acid ([3]; metabolite succinate/methylmalonic acid, S2 Table Metabolomics, change in metabolite level after compound treatment) of -0.3004. For the same molecule, the uridine ([3]; metabolite uridine, S2 Table Metabolomics, change in metabolite level after compound treatment) was -0.07558, the xanthosine ([3]; metabolite xanthosine, S2 Table Metabolomics, change in metabolite level after compound treatment) was -1.8392 and the EC50 [4] was 450 nM. The EC50 [5] was 142 nM, the “fold change (IC50reduced/IC50normal)” value [6] was 2.7 and the IC50 ([6]; 3D7, read-out: P. falciparum 3D7 IC50 HCO3- (2g/L), standard media) was 98 nM. The IC50 ([6]; 3D7, HCO3- reduced media, read-out: P. falciparum 3D7 IC50 HCO3- reduced) was 269 nM and the “candidate inhibitors of PfPMT activity (yeast functional assay)” value [7] was “candidate inhibitors of PfPMT activity”.

In the case of `O=C(Nc1ccc(N2CCN(Cc3ccccc3)CC2)cc1)c1cccs1` [MMV019670], the “non-toxic N. caninum actives” value [8] is reported as “non-toxic N. caninum actives”.

For `CN(C)c1ccc(-c2nc3cc(N)ccc3[nH]2)cc1` [MMV666102], the “effect on rPfA-M1 in words” value [9] was “particularly effective”.

In the case of `CCCc1c(C)nc2ccc(Br)cc2c1O` [MMV666095], the “non-toxic compounds active” value [1] is listed as “active”.

For `CN(C)c1ccc2nc3ccc(=[N+](C)C)cc-3sc2c1` [methylene blue, reference compound], the EC50 [10] is listed as 38 nM, the EC50 [11] is listed as 30 nM and the EC50 [12] is listed as 280 nM. The EC50 [13] was 287 nM.

In the case of `CCOc1cccc2sc(N(Cc3cccnc3)C(=O)C3CCCCC3)nc12` [MMV001230], the EC50 [14] is listed as 156 nM.

For `CCOc1ccc2cc(-c3nn(CC4CCN(C)CC4)c4ncnc(N)c34)ccc2c1` [BKI-1294, reference compound], the “N. caninum proliferation, positive control” value ([8]; 1µM) was “complete block of proliferation”.

For `Clc1ccc2c(N3CCCC3)ccnc2c1` [MMV007363], the “non-toxic compounds active” value [1] is listed as “active”.

For `C[C@H]1[C@@H](O)O[C@@H]2O[C@@]3(C)CC[C@H]4[C@H](C)CC[C@@H]1[C@@]24OO3` [Dihydroartemisinin, reference compound], the EC50 [15] was 4 nM and the “DHA inhibition of stage IV/V gametocytes” value [16] was 84%.

For `CCCCN(CCCC)S(=O)(=O)c1ccc(NC(=O)c2ccco2)cc1` [MMV007881], the “non-toxic compounds active” value [1] is listed as “active”.

In the case of `Cc1ccc(NC(=O)Nc2cccc(Cl)c2)cc1F` [MMV000911], the “non-toxic N. caninum actives” value [8] is reported as “non-toxic N. caninum actives”.

For `CCOc1ccccc1NC(=O)CN1CCN(C(=O)c2ccco2)CC1` [MMV007791], the “non-toxic compounds active” value [1] is listed as “active”.

In the case of `CCCCCCCCCCCCCCCCOP(=O)([O-])OCC[N+](C)(C)C` [Miltefosine, reference compound], the IC50 [17] is given as 7100 nM and 9000 nM.

In the case of `Cc1ccc(C(=O)Nc2ccc(S(=O)(=O)O)c3cc(S(=O)(=O)O)cc(S(=O)(=O)O)c23)cc1NC(=O)c1cccc(NC(=O)Nc2cccc(C(=O)Nc3cc(C(=O)Nc4ccc(S(=O)(=O)O)c5cc(S(=O)(=O)O)cc(S(=O)(=O)O)c45)ccc3C)c2)c1` [Suramin, reference compound], the IC50 [18] is given as 60 nM and 50 nM and the IC50 [19] is given as 70 nM and 50 nM.
